In patent US12103952B2, “Methods for expressing proteins in axons” (Cornell University, priority 2010, dated 2024):

Test system: CREB reporter mRNA translation in DRG axons
Assay: myr-dEGFP3′CREB Sindbis translation reporter in axons
Assay type: cell-based, rat
Details: factor restored after NGF-free media
Excerpt: FIGS. 5A-C are results showing NGF-dependent translation of a CREB reporter mRNA in axons. (A) Schematic diagram of the Sindbis viral reporter construct used to monitor CREB translation. The reporter contains a myristoylated, destabilized EGFP (myr-dEGFP) with the 3′UTR of CREB, expressed under control of the Sindbis subgenomic promoter (PSG). (B) E15 DRG explant cultures were infected with Sindbis constructs expressing myr-dEGFP3′CREB on DIV3 and fluorescence (bottom panel) and phase (top panel) images, approximately 1000 μm from the cell body were collected after 24 hours. Fluorescence images are shown in inverted contrast in order to more readily visualize puncta. Scale bar, 25 μm. […] EGFP fluorescence co-localizes with a population of S6-labeled ribosomal clusters. […]
FIGS. 6A-H are data showing that axonal CREB is specifically translated in response to NGF. […] (B) E15 DRG explant cultures were infected with Sindbis constructs expressing myr-dEGFP3′RhoA or myr-dEGFP3′H1f0 on DIV3 and fluorescence images were collected after 24 h. […] (D) Axons from DIV3 DRGs were analyzed for CREB and mitochondrial localizations by immunofluorescence using CREB-specific and VDAC/porin1-specific antibodies. […] CREB mRNA was detected by FISH using a CREB specific riboprobe. […] (H) Axons of DIV3 DRG explant cultures were analyzed by immunofluorescence for NGF effectors CREB, pTrkA and pErk5 at 3 DIV. […]

NGF: nerve growth factor
fluorescent myr-dEGFP3′CREB puncta: reappeared following restoration of NGF
